# Measurements taken from patent US8921417B2, “Method of treating dyslipidemia using naturally occurring diterpene” (Council of Scientific & Industrial Research, priority 2008, dated 2014).
# Marks after values point to notes of the source that are not given here.
# Test system: high fat diet (HFD)-fed dyslipidemic hamsters
# Experiment: Antidyslipidemic activity in high fat diet (HFD)-fed dyslipidemic hamster model
# Format: in vivo, golden Syrian hamsters
# Settings: for antidyslipidemic activity (in words): different doses (5, 10, 25, 50, 100 mg/kg) of body weight; for GLY, percent change with respect to HFD-fed hamster group / HDL/TC, percent change with respect to HFD-fed hamster group / TC, percent change with respect to HFD-fed hamster group / TG, percent change with respect to HFD-fed hamster group / LDL, percent change with respect to HFD-fed hamster group: plasma
# Excerpt: Male golden Syrian hamsters weighing 110-120 g were divided into hyperlipidemic and hyperlipidemic plus drug-treated groups. Each group consisted of eight animals. Hyperlipidemia was produced by feeding with a high fat diet (HFD). Hyperlipidemic hamsters had free access to the HFD and water ad lib during the entire period of the experiment. The test samples were given orally at the dose mentioned using water as a drug vehicle from day 4 to day 10 (7 days) in the HFD fed hamsters.
# Normal hamsters fed with the HFD and given the drug vehicle (water) only served as control animals. Body weight and diet intake of each animal group was recorded daily to check the effect of the drug on food intake and body weight of the animals. At the end of the experiment, i.e., on the 10th day, the blood of the non-fasted animals was withdrawn in EDTA coated tubes and the tubes were cooled to 4° C. for 15 min. The cold plasma was separated and biological analysis of the plasma was performed on the same day using commercially available enzymatic diagnostic kits for triglycerides (TG), total cholesterol (TC), high density lipoprotein (HDL), glycerol (GLY) and low density lipoprotein (LDL) using a Synchron CX-5 Clinical System, Beckmann Coulter Instrument. The data was analyzed for its significance on Prism Software.
# [1] = dose 25 mg/kg body weight, oral, 7 days
# [2] = dose 50 mg/kg body weight, oral, 7 days
# [3] = dose 100 mg/kg body weight, oral, 7 days
compound,measurement,setting,value
"CC1=CCC[C@@H]2[C@@](C)(CCC3=CC(=O)O[C@@H]3O)[C@H](C)CC[C@@]12C [Compound 1, 16α-hydroxycleroda-3,13(14)Z-dien-15,16-olide]",antidyslipidemic activity (in words),listed as compound having formula (1),significant antidyslipidemic activity
same,antidyslipidemic activity (in words),listed as pure isolated compound from the hexane extract,"significantly decreased serum TG, total cholesterol (TC), and glycerol (Gly), accompanied by increase in HDL-C/TC ratio"
same,"GLY, percent change with respect to HFD-fed hamster group","dose 5 mg/kg p.o., 7 days",−10%
same,"HDL/TC, percent change with respect to HFD-fed hamster group","dose 5 mg/kg p.o., 7 days",+12%
same,"TC, percent change with respect to HFD-fed hamster group","dose 5 mg/kg p.o., 7 days",−27* %
same,"TG, percent change with respect to HFD-fed hamster group","dose 5 mg/kg p.o., 7 days",−19%
same,"GLY, percent change with respect to HFD-fed hamster group","dose 10 mg/kg p.o., 7 days",−5%
same,"HDL/TC, percent change with respect to HFD-fed hamster group","dose 10 mg/kg p.o., 7 days",+12%
same,"TC, percent change with respect to HFD-fed hamster group","dose 10 mg/kg p.o., 7 days",−23* %
same,"TG, percent change with respect to HFD-fed hamster group","dose 10 mg/kg p.o., 7 days",−26*** %
same,increase of HDL/TC,[1],36%
same,lowering of Low density lipoproteins (LDL),[1],49%
same,lowering of glycerol (Gly),[1],51%
same,lowering of total cholesterol (TC),[1],46%
same,lowering of serum TG,"dose 25 mg/kg body weight, oral, 7 days, listed as compound of formula (1), 25 mg/kg",51%
same,lowering of serum TG,"dose 25 mg/kg body weight, oral, 7 days, listed as the compound, 25 mg/kg",up to 51%
same,"GLY, percent change with respect to HFD-fed hamster group","dose 25 mg/kg p.o., 7 days",−51*** %
same,"HDL/TC, percent change with respect to HFD-fed hamster group","dose 25 mg/kg p.o., 7 days",+36%
same,"LDL, percent change with respect to HFD-fed hamster group","dose 25 mg/kg p.o., 7 days",−49* %
same,"TC, percent change with respect to HFD-fed hamster group","dose 25 mg/kg p.o., 7 days",−46** %
same,"TG, percent change with respect to HFD-fed hamster group","dose 25 mg/kg p.o., 7 days",−51*** %
same,increase of HDL/TC,[2],54%
same,lowering of Low density lipoproteins (LDL),[2],41%
same,lowering of glycerol (Gly),[2],48%
same,lowering of serum TG,[2],46%
same,lowering of total cholesterol (TC),[2],55%
same,"GLY, percent change with respect to HFD-fed hamster group","dose 50 mg/kg p.o., 7 days",−48** %
same,"HDL/TC, percent change with respect to HFD-fed hamster group","dose 50 mg/kg p.o., 7 days",+54%
same,"LDL, percent change with respect to HFD-fed hamster group","dose 50 mg/kg p.o., 7 days",−41* %
same,"TC, percent change with respect to HFD-fed hamster group","dose 50 mg/kg p.o., 7 days",−55*** %
same,"TG, percent change with respect to HFD-fed hamster group","dose 50 mg/kg p.o., 7 days",−46** %
same,increase of HDL/TC,[3],46%
same,lowering of Low density lipoproteins (LDL),[3],65%
same,lowering of glycerol (Gly),[3],43%
same,lowering of serum TG,[3],43%
same,lowering of total cholesterol (TC),[3],54%
same,"GLY, percent change with respect to HFD-fed hamster group","dose 100 mg/kg p.o., 7 days",−43*** %
same,"HDL/TC, percent change with respect to HFD-fed hamster group","dose 100 mg/kg p.o., 7 days",+46%
same,"LDL, percent change with respect to HFD-fed hamster group","dose 100 mg/kg p.o., 7 days",−65*** %
same,"TC, percent change with respect to HFD-fed hamster group","dose 100 mg/kg p.o., 7 days",−54*** %
same,"TG, percent change with respect to HFD-fed hamster group","dose 100 mg/kg p.o., 7 days",−43** %
same,increase of HDL/TC ratio,over the dose range 5 to 100 mg/kg body weight,up to 54%
same,reduction of total cholesterol (TC),"over the dose range 5 to 100 mg/kg, listed as compound of formula (1)",up to 55%
"CC(C)c1c(C(=O)Nc2ccccc2)c(-c2ccccc2)c(-c2ccc(F)cc2)n1CC[C@@H](O)C[C@@H](O)CC(=O)O [Atorvastatin, reference compound]",increase of HDL/TC,dose 10 mg/kg,35%
same,lowering of Gly,dose 10 mg/kg,52%
same,lowering of TC,dose 10 mg/kg,14%
same,lowering of TG,dose 10 mg/kg,63%
same,"GLY, percent change with respect to HFD-fed hamster group","dose 10 mg/kg p.o., 7 days",−52* %
same,"HDL/TC, percent change with respect to HFD-fed hamster group","dose 10 mg/kg p.o., 7 days",+35%
same,"TC, percent change with respect to HFD-fed hamster group","dose 10 mg/kg p.o., 7 days",−14%
same,"TG, percent change with respect to HFD-fed hamster group","dose 10 mg/kg p.o., 7 days",−63*** %
"CC[C@H](C)C(=O)O[C@H]1C[C@@H](C)C=C2C=C[C@H](C)[C@H](CC[C@@H]3C[C@@H](O)CC(=O)O3)[C@H]21 [Lovastatin, reference compound]",increase of HDL/TC,[1],12%
same,lowering of glycerol (Gly),[1],35%
same,lowering of serum TG,[1],29%
same,lowering of total cholesterol (TC),[1],9%
same,"GLY, percent change with respect to HFD-fed hamster group","dose 25 mg/kg p.o., 7 days",−35%
same,"HDL/TC, percent change with respect to HFD-fed hamster group","dose 25 mg/kg p.o., 7 days",+12%
same,"TC, percent change with respect to HFD-fed hamster group","dose 25 mg/kg p.o., 7 days",−9%
same,"TG, percent change with respect to HFD-fed hamster group","dose 25 mg/kg p.o., 7 days",−29%
"CC(C)OC(=O)C(C)(C)Oc1ccc(C(=O)c2ccc(Cl)cc2)cc1 [fenofibrate, reference compound]",increase of HDL-C/TC,dose 108 mg/kg body weight,10%
same,lowering of Gly,dose 108 mg/kg body weight,36%
same,lowering of TC,dose 108 mg/kg body weight,18%
same,lowering of TG,dose 108 mg/kg body weight,42%
